Data reported in patent US4303785A, “Antitumor anthracycline antibiotics” (priority 1978, dated 1981).
Where two headings read alike, the source gives them in different places.

System: L1210 cells
Assay: animal or person
Type: in vivo, CDF1 mice
Conditions: for response vs control in vivo at 0.15 mg/kg / response vs control in vivo at 0.31 mg/kg / response vs control in vivo at 0.625 mg/kg / response vs control in vivo at 1.25 mg/kg / response vs control in vivo at 2.5 mg/kg / response vs control in vivo at 5 mg/kg: Mus musculus, L1210, ip, 1080 h
Procedure: D. Representative compounds of general formula I" were tested against experimental animal tumors as follows: […]
CDF1 mice were administered intraperitoneally (i.p.) with 1×10^5 cells/mouse of L1210 cells. After 24 hours had elapsed since inoculation, the mice were administered the test compounds intraperitoneally once daily for 10 consecutive days and observed for a 45 day period.
The antitumor activity was shown by the prolongation rate of survival day (T/C, %) to the survival day of control mice injected with physiological saline.

[1] = 2.5 mg/kg/day i.p., once daily for 10 days
[2] = 5 mg/kg/day i.p., once daily for 10 days
[3] = read-out: Antitumor Activity (T/C, prolongation rate of survival day), 0.15 mg/kg/day i.p., once daily for 10 days
[4] = read-out: Antitumor Activity (T/C, prolongation rate of survival day), 0.31 mg/kg/day i.p., once daily for 10 days
[5] = read-out: Antitumor Activity (T/C, prolongation rate of survival day), 0.625 mg/kg/day i.p., once daily for 10 days
[6] = read-out: Antitumor Activity (T/C, prolongation rate of survival day), 1.25 mg/kg/day i.p., once daily for 10 days
[7] = 0.15 mg/kg/day i.p., once daily for 10 days
[8] = 0.31 mg/kg/day i.p., once daily for 10 days
[9] = 0.625 mg/kg/day i.p., once daily for 10 days
[10] = 1.25 mg/kg/day i.p., once daily for 10 days
[11] = read-out: Antitumor Activity (T/C, prolongation rate of survival day), 2.5 mg/kg/day i.p., once daily for 10 days
[12] = read-out: Antitumor Activity (T/C, prolongation rate of survival day), 5 mg/kg/day i.p., once daily for 10 days

CCCCOC(C)O[C@@H]1[C@H](C)O[C@@H](O[C@H]2C[C@](O)(C(C)=O)Cc3c(O)c4c(c(O)c32)C(=O)c2c(OC)cccc2C4=O)C[C@@H]1N (single isomer, unassigned) [Example 18-a, 4'-O-(1-butyloxyethyl) daunomycin a]
Antitumor Activity (T/C, prolongation rate of survival day) [1]: 116%
Antitumor Activity (T/C, prolongation rate of survival day) [2]: 144%
response vs control in vivo at 0.15 mg/kg [3]: 110%
response vs control in vivo at 0.31 mg/kg [4]: 103%
response vs control in vivo at 0.625 mg/kg [5]: 110%
response vs control in vivo at 1.25 mg/kg [6]: 116%

COc1cccc2c1C(=O)c1c(O)c3c(c(O)c1C2=O)C[C@@](O)(C(=O)CO)C[C@@H]3O[C@H]1C[C@H](N)[C@H](OC(C)OC2CCCCC2)[C@H](C)O1 (single isomer, unassigned) [Example 11-b, 4'-O-(1-cyclohexyloxyethyl) adriamycin b]
Antitumor Activity (T/C, prolongation rate of survival day) [7]: 105%
Antitumor Activity (T/C, prolongation rate of survival day) [8]: 105%
Antitumor Activity (T/C, prolongation rate of survival day) [9]: 105%
Antitumor Activity (T/C, prolongation rate of survival day) [10]: 105%
Antitumor Activity (T/C, prolongation rate of survival day) [1]: 125%
Antitumor Activity (T/C, prolongation rate of survival day) [2]: 145%

CCOC(C)O[C@@H]1[C@H](C)O[C@@H](O[C@H]2C[C@](O)(C(=O)CO)Cc3c(O)c4c(c(O)c32)C(=O)c2c(OC)cccc2C4=O)C[C@@H]1N (single isomer, unassigned) [Example 7-b, 4'-O-(1-ethyloxyethyl) adriamycin b]
Antitumor Activity (T/C, prolongation rate of survival day) [7]: 108%
Antitumor Activity (T/C, prolongation rate of survival day) [8]: 108%
Antitumor Activity (T/C, prolongation rate of survival day) [9]: 127%
Antitumor Activity (T/C, prolongation rate of survival day) [10]: 157%
Antitumor Activity (T/C, prolongation rate of survival day) [1]: 151%
Antitumor Activity (T/C, prolongation rate of survival day) [2]: 211%

COC(=O)C1CCCC(O[C@@H]2[C@H](C)O[C@@H](O[C@H]3C[C@](O)(C(C)=O)Cc4c(O)c5c(c(O)c43)C(=O)c3c(OC)cccc3C5=O)C[C@@H]2N)O1 (stereo partly drawn) [Example 15, 4'-O-(6-carbomethoxytetrahydropyranyl) daunomycin]
response vs control in vivo at 0.15 mg/kg [3]: 100%
response vs control in vivo at 0.31 mg/kg [4]: 100%
response vs control in vivo at 0.625 mg/kg [5]: 100%
response vs control in vivo at 1.25 mg/kg [6]: 100%
response vs control in vivo at 2.5 mg/kg [11]: 106%
response vs control in vivo at 5 mg/kg [12]: 131%

COc1cccc2c1C(=O)c1c(O)c3c(c(O)c1C2=O)C[C@@](O)(C(C)=O)C[C@@H]3O[C@H]1C[C@H](N)[C@H](OC2CCCC(OC)O2)[C@H](C)O1 (single isomer, unassigned) [Example 14-b, 4'-O-(6-methoxytetrahydropyranyl) daunomycin b]
Antitumor Activity (T/C, prolongation rate of survival day) [7]: 94%
Antitumor Activity (T/C, prolongation rate of survival day) [8]: 100%
Antitumor Activity (T/C, prolongation rate of survival day) [9]: 106%
Antitumor Activity (T/C, prolongation rate of survival day) [10]: 113%
Antitumor Activity (T/C, prolongation rate of survival day) [1]: 131%
Antitumor Activity (T/C, prolongation rate of survival day) [2]: 463%

COc1cccc2c1C(=O)c1c(O)c3c(c(O)c1C2=O)C[C@@](O)(C(=O)CO)C[C@@H]3O[C@H]1C[C@H](N)[C@H](OC(C)OCC(C)C)[C@H](C)O1 (single isomer, unassigned) [Example 9-b, 4'-O-(1-isobutyloxyethyl) adriamycin b]
Antitumor Activity (T/C, prolongation rate of survival day) [7]: 99%
Antitumor Activity (T/C, prolongation rate of survival day) [8]: 118%
Antitumor Activity (T/C, prolongation rate of survival day) [9]: 105%
Antitumor Activity (T/C, prolongation rate of survival day) [10]: 118%
Antitumor Activity (T/C, prolongation rate of survival day) [1]: 158%
Antitumor Activity (T/C, prolongation rate of survival day) [2]: 303%

CCCCOC(C)O[C@@H]1[C@H](C)O[C@@H](O[C@H]2C[C@](O)(C(=O)CO)Cc3c(O)c4c(c(O)c32)C(=O)c2c(OC)cccc2C4=O)C[C@@H]1N (single isomer, unassigned) [Example 8-b, 4'-O-(1-butyloxyethyl) adriamycin b]
Antitumor Activity (T/C, prolongation rate of survival day) [7]: 100%
Antitumor Activity (T/C, prolongation rate of survival day) [8]: 100%
Antitumor Activity (T/C, prolongation rate of survival day) [9]: 106%
Antitumor Activity (T/C, prolongation rate of survival day) [10]: 119%
Antitumor Activity (T/C, prolongation rate of survival day) [1]: 138%
Antitumor Activity (T/C, prolongation rate of survival day) [2]: 288%

COc1cccc2c1C(=O)c1c(O)c3c(c(O)c1C2=O)C[C@@](O)(C(C)=O)C[C@@H]3O[C@H]1C[C@H](N)[C@H](OC2CCCO2)[C@H](C)O1 (stereo partly drawn) [Example 12, 4'-O-(tetrahydrofuranyl) daunomycin]
response vs control in vivo at 0.15 mg/kg (0.15 mg/kg/day i.p., once daily for 10 days, read-out: Antitumor Activity (T/C, prolongation rate of survival day)): 99%
response vs control in vivo at 0.31 mg/kg (0.31 mg/kg/day i.p., once daily for 10 days, read-out: Antitumor Activity (T/C, prolongation rate of survival day)): 105%
response vs control in vivo at 0.625 mg/kg (0.625 mg/kg/day i.p., once daily for 10 days, read-out: Antitumor Activity (T/C, prolongation rate of survival day)): 111%
response vs control in vivo at 1.25 mg/kg (1.25 mg/kg/day i.p., once daily for 10 days, read-out: Antitumor Activity (T/C, prolongation rate of survival day)): 111%
response vs control in vivo at 2.5 mg/kg (2.5 mg/kg/day i.p., once daily for 10 days, read-out: Antitumor Activity (T/C, prolongation rate of survival day)): 160%
response vs control in vivo at 5 mg/kg (5 mg/kg/day i.p., once daily for 10 days, read-out: Antitumor Activity (T/C, prolongation rate of survival day)): 346%

COc1cccc2c1C(=O)c1c(O)c3c(c(O)c1C2=O)C[C@@](O)(C(C)=O)C[C@@H]3O[C@H]1C[C@H](N)[C@H](OC(C)OCC(C)C)[C@H](C)O1 (single isomer, unassigned) [Example 17-a, 4'-O-(1-isobutyloxyethyl) daunomycin a]
Antitumor Activity (T/C, prolongation rate of survival day) [2]: 156%
response vs control in vivo at 0.15 mg/kg [3]: 100%
response vs control in vivo at 0.31 mg/kg [4]: 100%
response vs control in vivo at 0.625 mg/kg [5]: 100%
response vs control in vivo at 1.25 mg/kg [6]: 100%
response vs control in vivo at 2.5 mg/kg [11]: 119%

COc1cccc2c1C(=O)c1c(O)c3c(c(O)c1C2=O)C[C@@](O)(C(=O)CO)C[C@@H]3O[C@H]1C[C@H](N)[C@H](OC(C)OC2CCCCC2)[C@H](C)O1 (single isomer, unassigned) [Example 11-a, 4'-O-(1-cyclohexyloxyethyl) adriamycin a]
Antitumor Activity (T/C, prolongation rate of survival day) [2]: 184%
response vs control in vivo at 0.15 mg/kg [3]: 105%
response vs control in vivo at 0.31 mg/kg [4]: 99%
response vs control in vivo at 0.625 mg/kg [5]: 105%
response vs control in vivo at 1.25 mg/kg [6]: 118%
response vs control in vivo at 2.5 mg/kg [11]: 125%

COc1cccc2c1C(=O)c1c(O)c3c(c(O)c1C2=O)C[C@@](O)(C(=O)CO)C[C@@H]3O[C@H]1C[C@H](N)[C@H](OC(C)OCC(C)C)[C@H](C)O1 (single isomer, unassigned) [Example 9-a, 4'-O-(1-isobutyloxyethyl) adriamycin a]
Antitumor Activity (T/C, prolongation rate of survival day) [2]: 257%
response vs control in vivo at 0.15 mg/kg [3]: 105%
response vs control in vivo at 0.31 mg/kg [4]: 105%
response vs control in vivo at 0.625 mg/kg [5]: 112%
response vs control in vivo at 1.25 mg/kg [6]: 125%
response vs control in vivo at 2.5 mg/kg [11]: 151%

COc1cccc2c1C(=O)c1c(O)c3c(c(O)c1C2=O)C[C@@](O)(C(=O)CO)C[C@@H]3O[C@H]1C[C@H](N)[C@H](OC(C)OCCCCCC(C)C)[C@H](C)O1 (single isomer, unassigned) [Example 10-a, 4'-O-(1-(6-methylheptyloxy)ethyl) adriamycin a]
response vs control in vivo at 0.15 mg/kg [3]: 105%
response vs control in vivo at 0.31 mg/kg [4]: 92%
response vs control in vivo at 0.625 mg/kg [5]: 99%
response vs control in vivo at 1.25 mg/kg [6]: 118%
response vs control in vivo at 2.5 mg/kg [11]: 125%
response vs control in vivo at 5 mg/kg [12]: 125%

CCCCOC(C)O[C@@H]1[C@H](C)O[C@@H](O[C@H]2C[C@](O)(C(C)=O)Cc3c(O)c4c(c(O)c32)C(=O)c2c(OC)cccc2C4=O)C[C@@H]1N (single isomer, unassigned) [Example 18-b, 4'-O-(1-butyloxyethyl) daunomycin b]
Antitumor Activity (T/C, prolongation rate of survival day) [7]: 103%
Antitumor Activity (T/C, prolongation rate of survival day) [8]: 96%
Antitumor Activity (T/C, prolongation rate of survival day) [9]: 110%
Antitumor Activity (T/C, prolongation rate of survival day) [10]: 110%
Antitumor Activity (T/C, prolongation rate of survival day) [1]: 151%
Antitumor Activity (T/C, prolongation rate of survival day) [2]: 188%
